In article PMC6361841, “Repurposing of Drugs as Novel Influenza Inhibitors From Clinical Gene Expression Infection Signatures” (Frontiers in Immunology, 2019):

Experiments:
[1] = system: A/Lyon/969/2009 H275Y (H1N1); format: cell-based, influenza virus
[2] = system: influenza A/Lyon/969/09 (H1N1)pdm09 virus; format: cell-based; conditions: basolateral medium replaced with fresh medium without drugs

Structure (SMILES)	Viral titer [1]	Reversibility of inhibitory and protective properties [2]
COc1ccc([C@@H]2Sc3ccccc3N(CCN(C)C)C(=O)[C@@H]2OC(C)=O)cc1 [Diltiazem]	2.8 log TCID50/ml	progressively reversible
CCNCC(O)c1cccc(O)c1 (stereo not drawn) [Etilefrine]	2.8 log TCID50/ml	
